{"source": "patent US20120034613A1", "about": "“Apparatus and Method for Testing Relationships Between Gene Expression and Physical Appearance of Skin” (NSE Products, Inc., priority 2010, published 2012)", "test_system": "stratum corneum", "experiment": "Corneometry, moisture content of the stratum corneum, 12 week clinical study", "assay_type": "in vivo, human", "conditions": "Left Ocular Bone; for Corneometer Mean: Baseline mean 56.49", "excerpt": "Corneometry measurements were taken on each subject's left ocular bone (in line with pupil) to measure the moisture content of the stratum corneum. All clinical and corneometer measurements and evaluations were taken at baseline, week 1 (visit 2), week 4 (visit 3), week 8 (visit 4) and week 12 (visit 5). Ultrasound and cutometer measurements and evaluations were taken at baseline, week 4 (visit 3), week 8 (visit 4) and week 12 (visit 5). Completed patient's diaries were reviewed for compliance at each visit. Mean clinical grading and instrumentation scores at each visit were statistically compared to baseline scores using paired t-test. Changes from baseline were considered significant at the p≦0.05 level. Mean percent change from baseline and incidence of positive responders were calculated for all attributes. Comparisons, based on the average from baseline, were made between the test materials using analysis of variance (ANOVA)."}
{"smiles": "OCc1ccccc1O[C@@H]1O[C@H](CO)[C@@H](O)[C@H](O)[C@H]1O", "note": "[Salicin, 2-(Hydroxymethyl)phenyl β-D-glucospyranoside]", "values": [{"measurement": "Corneometer Mean", "setting": "Week 1", "value": 60.54}, {"measurement": "Corneometer % Change", "setting": "Week 1 vs Baseline", "value": "(7.3%)"}, {"measurement": "Corneometer Mean", "setting": "Week 4", "value": 62.49}, {"measurement": "Corneometer % Change", "setting": "Week 4 vs Baseline", "value": "(10.6%)"}, {"measurement": "Corneometer Mean", "setting": "Week 8", "value": 63.91}, {"measurement": "Corneometer % Change", "setting": "Week 8 vs Baseline", "value": "(13.1%)"}, {"measurement": "Corneometer Mean", "setting": "Week 12", "value": 52.23}, {"measurement": "Corneometer % Change", "setting": "Week 12 vs Baseline", "value": "(−7.5%)"}]}
